Patent US20150087627A1, “COMBINATION OF KINASE INHIBITORS AND USES THEREOF” (Intellikine LLC, priority 2011, published 2015)

Tests used:
marginal zone B cells = test: Marginal zone B cells in mouse spleen (FACS); format: in vivo; conditions: 60 mg/kg, spleens harvested 2 hrs after the last dose, FIG. 9
Method: The effect of the compounds on the localization/viability of marginal zone B cells in the spleen is also evaluated at the conclusion of treatment.
Spleens were harvested 2 hrs after the last dose, processed and stained with appropriate antibodies (marginal zone B cell: B220+;CD23−;CD21hi) and analyzed for staining on GUAVA EasyCyte FACS machine using Guava Cytosoft 5.2 software.

PC3 cells = test: Proliferation of tumor cells (CellTiter-Glo); format: cell-based, human; conditions: read-out: cell proliferation IC50
Method: Cells comprising one or more mutations in PI3Kα, including but not limited to breast cancer cells (e.g., MDA-MB-361, T47D, SKOV-3), and cells comprising one or more mutations in PTEN including but not limited to prostate cancer cells (e.g., PC3), are typically grown in cell growth media such as DMEM supplemented with fetal bovine serum and/or antibiotics, and grown to confluency. Cells are then treated with various concentrations of test compound for about 2 hours and subsequently lysed in cell lysis buffer. Lysates are subjected to SDS-PAGE followed by Western blot analysis to detect downstream signaling markers, including but not limited to pAKT(S473), pAKT(T308), pS6, and p4E-BP1.
Cells were seeded at 5000-10,000 per well in a 96 well flat bottom plate 90 ul growth media. Pre-diluted compound (at 10 times the final concentration) or DMSO (control) was added. The compounds were prepared such that the dose range extended from a final concentration of 30 μM to 14 nM via 3-fold serial dilutions (8 point curve). The final DMSO concentration was 0.3%. Cells were incubated for 72 hours at 37° C. in a CO2 incubator. After 72 hours, proliferation was measured using CellTiter-Glo Luminescent reagent (Promega, PR-G7573). […] Luminescence was read on a PerkinElmer EnVision plate reader. […] Inhibition % was calculated as: 1−(cells+inhibitor)−background signal)/(cells+DMSO)−background signal)×100.

[1] = tested on: anti-TNP antibody production; test: TNP-Ficoll T-cell independent B-cell activation assay; format: in vivo, mice; conditions: 30, 60 or 120 mg/kg for 7 days, FIG. 8
Method: To test the effects of the compounds of the present invention in suppressing T cell independent antibody production, the TNP-Ficoll B-cell activation assay is used as described herein. Compounds of the present invention are dissolved in an appropriate vehicle (e.g. 5% 1-methyl-2-pyrrolidinone, 85% polyethylene glycol 400, 10% Solutor). Compounds are administered orally approximately 1 hr before TNP-Ficoll treatment to 4-10 week old mice. To study the effects of the compounds on B-cell activation, one set of mice are grouped according to the following table:
Four animals in group 1, and eight animals in groups 2 to 7 are euthanized in CO2 2 hours after the last compound administration on day 7. […]
Serum samples are analyzed for anti-TNP antibody titers by ELISA as described herein. […] HRP substrate (200 μl ABTS solution+30% H2O2+10 ml citrate buffer) is added to each well at 100 μl/well, incubated 2-20 minutes in the dark and the amount of anti-TNP IgG3 is determined spectrophotometrically at 405 nm. Similarly, anti-TNP IgM and total anti-TNP Ab are determined using anti-mouse IgM-HRP and anti-mouse Ig-HRP respectively.
Antibody production was measured using ELISA and plotted as a percentage of control group that were treated with vehicle.

[2] = tested on: MDA-MB-361 (PI3Kα/HER2 carcinoma) tumors; test: In vivo efficacy in xenogenic mouse model of breast cancer; set-up: species or system Nude mice; conditions: 60 mg/kg, FIG. 9 left panel
Method: Blood glucose was monitored periodically following administration of treatment.
Treatment of tumors (MDA-MB-361) with compounds was discontinued on Day 30. Tumors were measured every 2-5 days.

Nc1nc2cc(-c3ccc4ncc(C(=O)N5CCOCC5)n4c3)ccc2o1 [Compound A]
localization/viability of marginal zone B cells (marginal zone B cells): does not affect | IC50 (PC3 cells): > 10 µM | B cell function in vivo (antibody production, ELISA) [1]: not | tumor weight [2]: reduction in tumor weight
